Test results: patent US6664268B1, “Crystal modification B of 8-cyano-1-cyclopropyl-7-(1S,6S-2, 8-diazabicyclo[4.3.0]nonan-8-yl)-6-fluoro-1,4-dihydro-4-oxo-3-quinolinecarboxylic acid” (Bayer Aktiengesellschaft, priority 1998, dated 2003)

What was measured:
[1] = Water absorption at 95% relative atmospheric humidity; type: physicochemical; conditions: relative atmospheric humidity of 95% (saturated solution of Na2HPO4×12 H2O with sediment in water), within one day
Excerpt: At a relative atmospheric humidity of 95% (established using a saturated solution of Na2HPO4×12 H2O with sediment in water), the solid obtained according to this procedure absorbs approximately 17% by weight of water within one day.
At a relative atmospheric humidity of 95% (established using a saturated solution of Na2HPO4×12 H2O with sediment in water), the solid obtained according to this procedure absorbs approximately 1% by weight of water within one day.

[2] = Storage stability of the crystal modification; type: physicochemical
Excerpt: In addition, compared with amorphous CCDC, the modification B tends to absorb less water from the atmosphere. For these reasons, it is highly suitable for preparing tablets or other solid formulations. Owing to its stability, it gives these formulations the desired long-lasting storage stability. Using the crystal modification B, it is therefore possible to prepare, in a defined and targeted manner, stable solid preparations of CCDC.

Row | water absorbed by the solid [1] | SMILES | stability of crystal modification on prolonged storage [2]
1 | approximately 17 % by weight | N#Cc1c(N2C[C@@H]3CCCN[C@@H]3C2)c(F)cc2c(=O)c(C(=O)O)cn(C3CC3)c12 [Comparative Example, 8-cyano-1-cyclopropyl-7-(1 S,6S-2,8-diazabicyclo[4.3.0]nonan-8-yl)-6-fluoro-1,4-dihydro-4-oxo-3-quinolinecarboxylic acid, reference compound] | –
2 | approximately 1 % by weight | N#Cc1c(N2C[C@@H]3CCCN[C@@H]3C2)c(F)cc2c(=O)c(C(=O)O)cn(C3CC3)c12 [Example 1, 8-cyano-1-cyclopropyl-7-(1 S,6S-2,8-diazabicyclo[4.3.0]nonan-8-yl)-6-fluoro-1,4-dihydro-4-oxo-3-quinolinecarboxylic acid] | does not change into another crystal modification or the amorphous form
